# Experimental data reported in ChEMBL document CHEMBL1131488, “Dihydropyrancarboxamides related to zanamivir: a new series of inhibitors of influenza virus sialidases. 1. Discovery, synthesis, biological activity, and structure-activity relationships of 4-guanidino- and 4-amino-4H-pyran-6-carboxamides” (J Med Chem, 1998).
# Assays:
# [1] = molecular target: T1, Neuraminidase (Influenza B virus (strain B/Lee/1940), UniProt P03474); test: Inhibition of influenza B virus sialidase activity
# [2] = molecular target: Neuraminidase (Influenza A virus (A/Puerto Rico/8/1934(H1N1)), UniProt P03468); test: Inhibition of influenza A virus sialidase activity
# [3] = molecular target: Neuraminidase (Influenza A virus (A/Puerto Rico/8/1934(H1N1)), UniProt P03468); test: Inhibition of sialidase (Flu A, 5 nM)
# [4] = Clp, plasma clearance at a dose of 10 mg/kg; type: ADME, organism-based; parameters: dose 10 mg/kg; settings: read-out: Clp
# [5] = system: Mus musculus; test: Compound was tested for in vivo efficacy in mouse model of influenza A virus A/Singapore/1/57 at dose of 10 mg/kg.(ip); type: functional
# [6] = Vss, volume of distribution at steady state at a dose of 10 mg/kg; type: ADME, organism-based; parameters: dose 10 mg/kg; settings: in vivo, read-out: Vss
# [7] = system: Mus musculus; test: Compound was tested for in vivo efficacy in mouse model of influenza A virus A/Singapore/1/57 at dose of 1 mg/kg. (in); type: functional
# [8] = system: Mus musculus; test: Compound was tested for in vivo efficacy in mouse model of influenza A virus A/Singapore/1/57 at dose of 50 mg/kg.(ip); type: functional
# [9] = t1/2, plasma elimination half life, the time taken for the plasma concentrations to fall by one half, once distribution is complete at a dose of 10 mg/kg; type: ADME, organism-based; parameters: dose 10 mg/kg
# [10] = system: Influenza A virus; test: Compound was tested for in vivo efficacy in mouse model of influenza A virus A/Singapore/1/57 at dose of 100 mg/kg. (i.p.); type: functional; settings: route intraperitoneal
# [11] = system: Influenza A virus; test: Compound was tested for concentration of intranasally administered (in) (10 mg/kg) which reduces virus titer by 90%; type: functional; settings: inhaled or nasal
# [12] = system: Influenza A virus; test: Compound was tested for in vivo efficacy in mouse model of influenza A virus A/Singapore/1/57 at dose of 10 mg/kg. (in); type: functional
# [13] = system: Mus musculus; test: Compound was tested for in vivo efficacy in mouse model of influenza A virus A/Singapore/1/57 at dose of 0.1 mg/kg.; type: functional
# [14] = system: Mus musculus; test: Compound was tested for in vivo efficacy in mouse model of influenza A virus A/Singapore/1/57 at dose of 1 mg/kg.; type: functional
# [15] = system: Mus musculus; test: Compound was tested for concentration of intranasally administered drug (1 mg/kg) which reduces virus titer by 90%; type: functional; settings: inhaled or nasal
# [16] = system: Mus musculus; test: Compound was tested for in vivo efficacy in mouse model of influenza A virus A/Singapore/1/57 at dose of 50 mg/kg.; type: functional
# [17] = molecular target: Neuraminidase (Influenza A virus (A/Puerto Rico/8/1934(H1N1)), UniProt P03468)
# [18] = molecular target: Neuraminidase (Influenza A virus (A/Puerto Rico/8/1934(H1N1)), UniProt P03468); remark: listed apart in the source
# [19] = molecular target: Neuraminidase (Influenza A virus (A/Puerto Rico/8/1934(H1N1)), UniProt P03468); remark: listed apart in the source
# [20] = molecular target: Neuraminidase (Influenza A virus (A/Puerto Rico/8/1934(H1N1)), UniProt P03468); remark: listed apart in the source
# [21] = molecular target: T1, Neuraminidase; test: Inhibitory activity against sialidase of influenza B virus by plaque reduction assay
# [22] = system: Mus musculus; test: Compound was tested for concentration of intranasally administered drug (0.5 mg/kg) which reduces virus titer by 90%; type: functional; settings: inhaled or nasal
# [23] = Vss, volume of distribution at steady state at a dose of 50 mg/kg; type: ADME, organism-based; parameters: dose 50 mg/kg; settings: in vivo, read-out: Vss
# [24] = system: Mus musculus; test: Compound was tested for in vivo efficacy in mouse model of influenza A virus A/Singapore/1/57 at dose of 0.5 mg/kg (in); type: functional
# [25] = t1/2, plasma elimination half life, the time taken for the plasma concentrations to fall by one half, once distribution is complete at a dose of 50 mg/kg; type: ADME, organism-based; parameters: dose 50 mg/kg
# [26] = system: Mus musculus; test: Compound was tested for in vivo efficacy in mouse model of influenza A virus A/Singapore/1/57 at dose of 50 mg/kg (ip); type: functional
# [27] = Clp, plasma clearance at a dose of 50 mg/kg; type: ADME, organism-based; parameters: dose 50 mg/kg; settings: read-out: Clp
# T1 sequence (P03474 whole entry): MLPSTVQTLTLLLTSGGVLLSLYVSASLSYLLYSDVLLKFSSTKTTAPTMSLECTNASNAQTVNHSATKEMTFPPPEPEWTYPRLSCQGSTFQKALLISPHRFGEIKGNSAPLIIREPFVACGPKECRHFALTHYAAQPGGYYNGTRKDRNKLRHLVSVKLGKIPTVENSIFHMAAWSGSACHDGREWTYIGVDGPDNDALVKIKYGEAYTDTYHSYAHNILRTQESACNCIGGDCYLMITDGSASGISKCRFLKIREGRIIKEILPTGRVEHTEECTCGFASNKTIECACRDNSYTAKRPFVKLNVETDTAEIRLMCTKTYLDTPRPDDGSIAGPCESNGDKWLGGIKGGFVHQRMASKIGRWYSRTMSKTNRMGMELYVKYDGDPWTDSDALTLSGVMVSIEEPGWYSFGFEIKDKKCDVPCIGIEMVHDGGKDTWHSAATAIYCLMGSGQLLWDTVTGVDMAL
# Chain of Neuraminidase (Influenza A virus (A/Puerto Rico/8/1934(H1N1)), UniProt P03468) (P03468 whole entry): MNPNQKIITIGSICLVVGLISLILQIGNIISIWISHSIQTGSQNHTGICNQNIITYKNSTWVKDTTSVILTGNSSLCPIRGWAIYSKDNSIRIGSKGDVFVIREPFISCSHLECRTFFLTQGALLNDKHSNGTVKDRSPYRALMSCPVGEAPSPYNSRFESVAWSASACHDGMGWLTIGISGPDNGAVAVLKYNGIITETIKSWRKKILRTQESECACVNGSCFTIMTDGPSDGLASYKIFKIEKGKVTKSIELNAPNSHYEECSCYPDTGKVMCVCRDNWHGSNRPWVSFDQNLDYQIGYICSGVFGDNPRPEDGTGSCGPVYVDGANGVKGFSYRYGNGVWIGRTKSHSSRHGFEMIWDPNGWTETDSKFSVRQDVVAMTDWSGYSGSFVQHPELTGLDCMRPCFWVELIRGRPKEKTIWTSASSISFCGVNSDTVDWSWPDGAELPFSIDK
smiles,measurement,setting,value
CC(=O)N[C@@H]1[C@@H](N)C=C(C(=O)O)O[C@H]1C(=O)N(CCc1ccccc1)CC(N)=O,IC50,[1],31 µM
same,IC50,[2],19 µM
CC(=O)N[C@@H]1[C@@H](N)C=C(C(=O)O)O[C@H]1C(=O)NCCN,IC50,[3],> 390 µM
CCCN(CCc1cccc(-c2ccccc2)c1)C(=O)[C@@H]1OC(C(=O)O)=C[C@H](N)[C@H]1NC(C)=O,IC50,[1],4.5 µM
same,IC50,[2],0.002 µM
CCCN(CCCc1ccccc1)C(=O)[C@@H]1OC(C(=O)O)=C[C@H](N)[C@H]1NC(C)=O,IC50,[1],46 µM
same,IC50,[2],0.018 µM
CC(=O)N[C@@H]1[C@@H](N)C=C(C(=O)O)O[C@H]1C(=O)N(CCc1ccccc1)CC(=O)O,IC50,[1],75 µM
same,IC50,[2],130 µM
CCCN(CCc1ccccc1OC)C(=O)[C@@H]1OC(C(=O)O)=C[C@H](N)[C@H]1NC(C)=O,IC50,[1],12 µM
same,IC50,[2],0.009 µM
CCCCCCCCCN(CCC)C(=O)[C@@H]1OC(C(=O)O)=C[C@H](N=C(N)N)[C@H]1NC(C)=O,clearance,[4],21.8 mL/min/kg
same,Reduction in virus titer,[5],>99.99%
same,Vd,[6],1.2 L/kg
same,Reduction in virus titer,[7],72%
same,Reduction in virus titer,[8],50%
same,IC50,[1],> 3 µM
same,half-life,[9],55.2 min
same,IC50,[2],0.007 µM
CC(=O)N[C@@H]1[C@@H](N)C=C(C(=O)O)O[C@H]1C(=O)N(CCc1ccccc1)CCN(C)C,IC50,[1],> 300 µM
same,IC50,[2],> 300 µM
CC(=O)N[C@@H]1[C@@H](N)C=C(C(=O)O)O[C@H]1C(=O)N(CCc1ccccc1)C(C)C,IC50,[1],7.9 µM
same,IC50,[2],0.008 µM
CCCN(CCc1cccc(OC)c1)C(=O)[C@@H]1OC(C(=O)O)=C[C@H](N)[C@H]1NC(C)=O,IC50,[1],3.2 µM
same,IC50,[2],0.005 µM
CCCN(CCc1ccc(Cl)cc1Cl)C(=O)[C@@H]1OC(C(=O)O)=C[C@H](N)[C@H]1NC(C)=O,IC50,[1],16 µM
same,IC50,[2],0.006 µM
CCCN(Cc1ccccc1)C(=O)[C@@H]1OC(C(=O)O)=C[C@H](N)[C@H]1NC(C)=O,IC50,[1],180 µM
same,IC50,[2],4.2 µM
CCCN(CCc1ccc(C(C)C)cc1)C(=O)[C@@H]1OC(C(=O)O)=C[C@H](N)[C@H]1NC(C)=O,IC50,[1],6.2 µM
same,IC50,[2],0.012 µM
CCCCCCCCCN(CCC)C(=O)[C@@H]1OC(C(=O)O)=C[C@H](N)[C@H]1NC(C)=O,clearance,[4],17.9 mL/min/kg
same,Reduction in virus titer,[10],71%
same,Vd,[6],1.3 L/kg
same,ED90,[11],> 1 mg/kg
same,half-life,[9],52.2 min
same,Reduction in virus titer,[12],96%
CCCN(CCC)C(=O)[C@@H]1OC(C(=O)O)=C[C@H](NC(=N)N)[C@H]1NC(C)=O,clearance,[4],6 mL/min/kg
same,Reduction in virus titer,[13],99.3%
same,Reduction in virus titer,[14],99.93%
same,Vd,[6],0.5 L/kg
same,ED90,[15],< 0.01 mg/kg
same,Reduction in virus titer,[16],86%
same,half-life,[9],22.2 min
CC(=O)N[C@@H]1[C@@H](N)C=C(C(=O)O)O[C@H]1C(=O)N(CCc1ccccc1)C1CC1,IC50,[1],36 µM
same,IC50,[2],0.046 µM
CCCN(C)C(=O)[C@@H]1OC(C(=O)O)=C[C@H](N)[C@H]1NC(C)=O,IC50,[17],4.7 µM
same,IC50,[18],0.11 µM
same,IC50,[19],3.7 µM
same,IC50,[20],0.18 µM
CC(=O)N[C@@H]1[C@@H](N)C=C(C(=O)O)O[C@H]1C(=O)NCCc1ccccc1,IC50,[21],> 100 µg/mL
CCN(CC)C(=O)[C@@H]1OC(C(=O)O)=C[C@H](NC(=N)N)[C@H]1NC(C)=O,Reduction in virus titer,[16],89%
CCCN(CCc1ccc(-c2ccccc2)cc1)C(=O)[C@@H]1OC(C(=O)O)=C[C@H](N)[C@H]1NC(C)=O,IC50,[2],0.002 µM
CCCN(CC)C(=O)[C@@H]1OC(C(=O)O)=C[C@H](N)[C@H]1NC(C)=O,IC50,[1],0.41 µM
CC(=O)N[C@H]1[C@H]([C@H](O)[C@H](O)CO)OC(C(=O)O)=C[C@@H]1NC(=N)N [ZANAMIVIR],ED90,[22],0.03 mg/kg
same,Vd,[23],0.3 L/kg
same,Reduction in virus titer,[24],99.5%
same,half-life,[25],9.6 min
same,Reduction in virus titer,[26],96.2%
same,clearance,[27],24.9 mL/min/kg
